In the supplement of paper PMC10290057 one finds efficacy data, which are given here for 66 compounds.

The structures appear in SMILES notation. Counter-ions that a name gives are not always drawn.
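Further: Luminescence-based viability readout, five doses per compound, normalized against on-plate DMSO and empty-well controls, followed by dose-response curve fitting for every drug.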

For this assay, the system named is HCT116. Kind of assay: efficacy (fitted maximal change in viability relative to DMSO control); higher = less cytotoxic (negative = loss of viability). Particulars: 48 h.
Consider `C[C@]1(C(=O)N(CCCC(=O)O)Cc2cccc(Cl)c2)CCN1C(=O)c1csc2ccccc12` [GLPG-0974], for which the efficacy was -21.2%. As to `CC(C)C[C@H](CC(=O)O)C(=O)N[C@@H](Cc1c[nH]c2ccccc12)C(=O)N[C@@H](C)c1ccccc1` [GM-1489], the efficacy is 10.9%. Then `Nc1ncc(C(=O)NC2CN(C(=O)C3CC3)C2)c2ccc(-c3cccc(F)c3)nc12` [GNE-495], with -23.5%.

Consider `CC(=O)N1CCN(c2ccc(NC(=O)Cc3cnc(-c4ccnc(F)c4)c(C)c3)nc2)CC1` [GNF-6231], for which the efficacy was -22.2%. As for `C[C@H](NC(=O)Cc1cc(F)cc(F)c1)C(=O)N[C@H](C(=O)OC(C)(C)C)c1ccccc1` [GSI-IX], the figure is 26%; as for `CCN(C(=O)c1ccccc1OC)c1cc2c(cc1N1CCNC[C@H]1C)n(C)c(=O)n2C` [GSK9311], -8.64%. Then `CC[C@H](C)[N]1C=C(C)C2=C1C=C(C=C2C(=O)NC\C3=C(C)\C=C(\C)NC3=O)C4=CC=C(N=C4)N5CCNCC5` [GSK-126], with -125%; and `CN1C(=O)[C@@H](NC(=O)c2cc(Cc3ccccc3)on2)COc2ccccc21` [GSK-481], with -10.3%; and `CC(C)(C)[S+](=O)([O-])c1ccc2nccc(Nc3n[nH]c4ccc(F)cc34)c2c1` [GSK-583], with -39.1%.

For the compound `COc1c(C)cc(NC(=O)c2nn(Cc3ccc(F)cc3)c3c2CN(C(=O)c2ccc[nH]2)C[C@]3(C)C(N)=O)cc1C` [GSK-864], the efficacy is -35.1%. Then `CC(C)[S+](=O)([O-])c1ccc2nccc(Nc3ccc4scnc4c3)c2c1` [GSK-872], with -37.8%; and `CC(C)(C)C(=O)N1\N=C/C[C@H]1C2=CC=CC=C2` [GSK-963], with -9.61%. For the compound `CCCOc1ccn2c(C(C)=O)cc(-c3ccccc3[S+](C)(=O)[O-])c2c1` [GSK-2801], the efficacy is -30.1%.

With `O=C(O)Cc1cccc(OCCCN(Cc2cccc(C(F)(F)F)c2Cl)CC(c2ccccc2)c2ccccc2)c1` [GSK-3965], the efficacy is -71.2%. With `COc1ccccc1C(=O)Nc1cc2c(cc1N1CCCCC1)n(C)c(=O)n2C` [GSK-5959], the efficacy was -9.01%.

`O=C(O)CCNc1cc(N2CCc3ccccc3CC2)nc(-c2cccnc2)n1` [GSK-J2]: the efficacy is -21.7%.

As for `Cc1cc(SCc2sc(-c3ccc(C(F)(F)F)c(F)c3)nc2C)ccc1OCC(=O)O` [GW-0742], the efficacy is -21%. Take `CN(CCOc1ccc(C[C@H](Nc2ccccc2C(=O)c2ccccc2)C(=O)O)cc1)c1ccccn1` [GW-1929]: the efficacy was -7.57%. For `CC(C)c1onc(-c2c(Cl)cccc2Cl)c1COc1ccc(/C=C/c2cccc(C(=O)O)c2)c(Cl)c1` [GW-4064X], the efficacy is -29.7%. Consider `O=C1Nc2ccc(I)cc2/C1=C/c1cc(Br)c(O)c(Br)c1` [GW-5074], for which the efficacy was -38%. As for `CCC(=O)NC[C@H](Cc1ccc(OCCc2nc(-c3ccccc3)oc2C)cc1)N/C(C)=C\C(=O)c1ccc(C(F)(F)F)cc1` [GW-6471], the figure is -30.2%; as for `CC(C)(Sc1ccc(CCN(CCCCC2CCCCC2)C(=O)NC2CCCCC2)cc1)C(=O)O` [GW-7647], -45.1%; as for `O=C(O)CCc1ccc(NCc2cccc(Oc3ccccc3)c2)cc1` [GW-9508], -8.05%. As for `CCOC(=O)c1ccc(OC(=O)CCCCCNC(=N)N)cc1` [Gabexate mesilate], the figure is 7.86%. For `Cc1cccc(-c2nn3c(c2-c2ccnc4ccc(C(N)=O)cc24)CCC3)n1` [Galunisertib], the efficacy came to 12.5%. Take `N\C1=N\C2=C(N=C[N]2COC(CO)CO)C(=O)N1` [Ganciclovir]: the efficacy was -18.1%. Then `COc1cc2ncnc(Nc3ccc(F)c(Cl)c3)c2cc1OCCCN1CCOCC1` [Gefitinib], with -15.4%; and `COC1=C2C[C@H](C)C[C@H](OC)[C@H](O)[C@@H](C)/C=C(/C)[C@H](OC(N)=O)[C@@H](OC)/C=C\C=C(\C)C(=O)NC(=CC1=O)C2=O` [Geldanamycin], with -57.3%. As for `Cc1ccc(C)c(OCCCC(C)(C)C(=O)O)c1` [Gemfibrozil], the figure is -13.1%. Take `OC1=CC=C(C=C1)\C2=C\OC3=C(C(=CC(=C3)O)O)C2=O` [Genistein]: the efficacy is -33.2%. Then `CC[C@]12CC[C@H]3[C@@H](CCC/4=C/C(=O)CC[C@H]34)[C@@H]1\C=C/[C@@]2(O)C#C` [Gestodene], with -21.8%.

With `O=c1cc(O)c(Cl)c[nH]1` [Gimeracil], the efficacy is -6.4%.

For the compound `C[C@@H]1C(=O)OC2[C@H](O)[C@]34[C@H]5C[C@@H](C(C)(C)C)[C@]36[C@@H](OC(=O)[C@@H]6O)O[C@@]4(C(=O)O5)[C@]21O` (stereo partly specified) [Ginkgolide B], the efficacy is -9.74%.

As for `CN1CC[C@@H](NC(=O)Nc2ccc(C#N)cc2)C[C@@H]1c1nc2ccccc2[nH]1` [Glasdegib], the efficacy was -8.71%. Then `CCC1=C(C)CN(C(=O)NCCc2ccc(S(=O)(=O)NC(=O)N[C@H]3CC[C@H](C)CC3)cc2)C1=O` [Glimepiride], with -14.8%; and `CN1[C@@H]2CCC[C@H]1CC(NC(=O)c1nn(C)c3ccccc13)C2` (stereo partly specified) [Granisetron (AB-1001)], with -17.2%; and `C=CC(=O)Nc1cc(N2CCN(CC)CC2)ccc1Nc1cc(N(C)C(=O)Nc2c(Cl)c(OC)cc(OC)c2Cl)ncn1` [H3B-6527], with -19.6%. On to `CCOC(=O)C(C#N)C\1C2=CC(=CC=C2O\C(=C1C(=O)OCC)N)Br` (stereo unspecified) [HA-14-1], for which the efficacy was -8.15%.

In the case of `Oc1cc2c(cc1O)C1c3ccc(O)c(O)c3OCC1(O)C2` (stereo unspecified) [Hematoxylin], the efficacy was -9.9%. Then `CCC(c1ccc(O)cc1)C(CC)c1ccc(O)cc1` (stereo unspecified) [Hexestrol], with -61.8%. As to `CNc1nc(Nc2ccc(C(=O)N3CCOCC3)cc2OC)ncc1Cl` [Hg-10-102-01], the efficacy was -12.2%. On to `N[S+](=O)([O-])c1cc2c(cc1Cl)NCN[S+]2(=O)[O-]` [Hydrochlorothiazide], for which the efficacy was 7.16%.

On to `C[C@]\12CCC(=O)\C=C1CC[C@H]3[C@@H]4CC[C@](O)(C(=O)CO)[C@@]4(C)C[C@H](O)[C@H]23` [Hydrocortisone], for which the efficacy was -23%.

Consider `C/C1=C2/[N]3[Co+]456([OH])<-[N]7=C1[C@@H](CCC(N)=O)C(C)(C)/C7=C/C1=[N]->4C(=C(/C)C4=[N]->5[C@@](C)([C@H]3[C@H](CC(N)=O)[C@@]2(C)CCC(=O)NC[C@@H](C)OP(=O)([O-])O[C@H]2[C@@H](O)[C@@H](n3c[n]->6c5cc(C)c(C)cc53)O[C@@H]2CO)[C@@](C)(CC(N)=O)[C@@H]4CCC(N)=O)/[C@@](C)(CC(N)=O)[C@@H]1CCC(N)=O` [Hydroxocobalamin], for which the efficacy was -39.6%. As for `CC(C)(O)C(=O)Nc1ccc([N+](=O)[O-])c(C(F)(F)F)c1` [Hydroxyflutamide], the efficacy is -27.7%. As for `C[C@H](CCC(=O)O)[C@H]1CCC2C3C[C@H](O)[C@@H]4C[C@H](O)CC[C@]4(C)C3CC[C@@]21C` (stereo partly specified) [Hyodeoxycholic acid], the figure is 5.2%; as for `CCN(c1ccccc1)c1cc(NC)[n+](C)c(C)n1` [ICI-D7288], -13%; as for `CC(C(C)N1CC(=O)NC(=O)C1)N1CC(=O)NC(=O)C1` (stereo unspecified) [ICRF-193], -32.2%. On to `COc1ccc(-n2c(C)c([N+](=O)[O-])c3ccc(O)cc32)cc1` [ID-8], for which the efficacy is -14.4%. On to `O=C(O)CCCCCC(=O)NN=C1CCCC1` [IDE-2], for which the efficacy is -8.18%. Then `CCCCc1ccc(N[S+](=O)([O-])c2ccc(C)c(C(=O)N3CCN(c4cccc(C)c4C)CC3)c2)cc1` [IDH-001], with -48.4%; and `Cc1ccccc1C(C(=O)NC1CCCCC1)N(C(=O)CNc1ccc(C#N)cc1)c1cccc(F)c1` (stereo unspecified) [IDH-C227], with -56.1%. As for `COc1cc2ncn(-c3cc(OCc4ccccc4[S+](C)(=O)[O-])c(C#N)s3)c2cc1OC` [IKK-3 Inhibitor IX], the figure is -13.8%. As to `OC(=O)CNC(=O)\C1=C(/O)C2=CC=CC=C2N(CC3=CC=CC=C3)C1=O` [IOX2], the efficacy was 9.68%. Then `O=C(O)c1ccc(O)c2ncccc12` [IOX-1], with -36.7%. Then `Oc1ccc2ccccc2c1SSc1c(O)ccc2ccccc12` [IPA-3], with -115%; and `Cc1cc(/C=c2/sc3nc4ccccc4n3c2=O)c(C)n1-c1ccccc1` [ITX3], with -19.9%.

Turning to `CC1=CC=C2N=C(NC(=O)CS\C3=N\C4=C(\SCC4)C(=O)N3C5=CC=CC=C5)SC2=C1` [IWP-2], the efficacy is -12.9%. As for `O=C1CC[C@H](N2Cc3c(OCc4ccc(CN5CCOCC5)cc4)cccc3C2=O)C(=O)N1` [Iberdomide], the figure is -18.8%. With `CC(C)(N)C(=O)N[C@H](COCc1ccccc1)C(=O)N1CCC2(CC1)CN([S+](C)(=O)[O-])c1ccccc12` [Ibutamoren mesilate], the efficacy is -50.7%. As for `CCCCCCCN(CC)CCCC(O)c1ccc(N[S+](C)(=O)[O-])cc1` (stereo unspecified) [Ibutilide fumarate], the figure is -59.1%. `COC1=CC=C(C=C1)C/2=C(OC3O[C@@H](C)[C@H](O)[C@@H](O)[C@H]3O)/C(=O)C4=C(O2)C(=C(OC5O[C@H](CO)[C@@H](O)[C@H](O)[C@H]5O)C=C4O)CC=C(C)C` (stereo partly specified) [Icariin]: the efficacy is -27.5%. As for `COC1=CC=C(C=C1)/C2=C(O)/C(=O)C3=C(O)C=C(O)C(=C3O2)CC=C(C)C` [Icaritin], the figure is -16.5%; as for `C#Cc1cccc(Nc2ncnc3cc4c(cc23)OCCOCCOCCO4)c1` [Icotinib hydrochloride], -36%. For `CC[C@H](NC1=C2N=C[NH]C2=NC=N1)C/3=N/C4=C(C(=CC=C4)F)C(=O)N3C5=CC=CC=C5` [Idelalisib], the efficacy was -25.3%. Consider `C[S+]([O-])(=O)NC1=CC2=C(C=C1OC3=CC=CC=C3)C(=O)\C(=C/O2)NC=O` [Iguratimod], for which the efficacy was -14.8%.
